US20180273528A1 (LES LABORATOIRES SERVIER, priority 2015, published 2018)

Legend:
DYRK1A = DYRK1A (Homo sapiens, UniProt Q13627); test: Cellular DYRK1 autophosphorylation assay in U2-OS cells; type: cell-based; set-up: full-length, wild-type human DYRK1A (NM_001396) with an HA tag; expressed in transfected cells; host or cells: human U2-OS osteosarcoma cells, transient transfection of a pcDNA3.1 plasmid; conditions: U2-OS cells transfected with HA-tagged human DYRK1A, 5 hours exposure; read-out: IC50 (μM) P-Ser520-Dyrk1A -Cell assay
Method: On day 2, cells were exposed to a range of concentrations of the test compounds of the invention for 5 hours. […] The relative levels of phospho-Ser520-DYRK1A were assayed using either western blotting or the Mesoscale ELISA platform. For analysis by western blot, lysates were diluted into Laemmli sample buffer (Bio-Rad) containing 5% v/v β-mercaptoethanol, heated for 5 min at 95° C., and resolved on Tris-glycine gels or NuPage Bis-Tris gels (Novex; Invitrogen). Biotinylated molecular weight standards (Cell Signaling Technology) were included in all gels. Proteins were transferred to nitrocellulose membranes (Hybond, ECL; Amersham), which were blocked in Tris-buffered saline/0.1% tween 20 (TBST) containing 5% milk, and probed at 4° C. overnight with anti-phospho-Ser520-DYRK1A antibody (Eurogentec SE6974-75; 0.23 μg/ml in 5% BSA) or anti DYRK1A antibody (Abnova H00001859; 0.5 μg/ml in 5% milk). Peroxidase-conjugated secondary antibodies were diluted into 5% milk and applied to membranes for 1 h at 20° C. Chemiluminescence detection was performed using the ECL plus western blotting detection kit (Amersham) and was recorded on ECL plus hyperfilm (Amersham). Blots were scanned using the Bio-Rad GS-800 calibrated densitometer and quantitative analysis of western blots was performed using TotalLab software (Amersham). IC50 values for inhibition of phospho-Ser520-DYRK1A were calculated from dose-response curves plotting the ratio between phospho-Ser520-DYRK1A and total DYRK1A signals at each concentration. […] Anti-phospho-Ser520-DYRK1A antibody (Eurogentec SE6974-75; […]) and anti DYRK1A antibody (Abnova H00001859; 3 μg/ml) was then added for 1 hour at RT, followed by addition of Sulfa-TAG anti-rabbit detection antibody (ref MSD R32AB; 1 μg/ml) and Sulfa-TAG anti-mouse detection antibody (ref MSD R32-AC-1; 1 μg/ml). After a further 1 hour, Read Buffer was added and plates were read on the Sector Imager 2400 (Mesoscale). IC50 values for inhibition of phospho-Ser520-DYRK1A were calculated from dose-response curves.

[1] = target: T1, His-TEV-DYRK1A Kinase domain (aa127-485) (Homo sapiens, UniProt Q13627); test: Kinase ADP assay (ADP Hunter), DYRK1A kinase domain; type: biochemical; conditions: 20 μM ATP
T1 construct: His-TEV-DYRK1A Kinase domain (aa127-485); His tag (N); TEV protease cleavage site (N)
Method: The enzyme reaction was conducted in assay buffer (pH 7.4), containing 15 mM Hepes; 20 mM NaCl; 1 mM EGTA; 10 mM MgCl2; 0.02% Tween20 and 0.1 mg/ml Bovine-y-globulin. Test compounds of the invention were added in reaction buffer in a range of concentrations for 10 minutes at 30° C. in the presence of 20 nM DYRK1A enzyme, 40 μM peptide substrate and 20 μM ATP. Detection reagents (DiscoveRx 90-0083), ADP Hunter Plus Reagent A and then ADP Hunter Plus Reagent B were added. After a following 20 minutes incubation at 30° C., ADP Hunter Plus Stop Solution was added. The fluorescence intensity was measured at 590 nm.

| IC50 (DYRK1A) | IC50 [1] | Compound |
| --- | --- | --- |
| 0.074 µM | 0.015 µM | Cc1nc2ccc(-c3cc(N)nc(N)c3)nc2n1C[C@H](C)Oc1ccccc1F (single isomer, unassigned) [Example 133] |
| 0.205 µM | 0.038 µM | Cc1nc2ccc(-c3cc(N)nc(N)c3)nc2n1C[C@@H](C)Oc1ccccc1F (single isomer, unassigned) [Example 134] |
| 0.098 µM | 0.016 µM | Cc1nc2ccc(-c3cc(N)nc(N)c3)nc2n1C[C@H](C)Sc1ccccc1 (single isomer, unassigned) [Example 135] |
| 0.247 µM | 0.028 µM | Cc1nc2ccc(-c3cc(N)nc(N)c3)nc2n1C[C@@H](C)Sc1ccccc1 (single isomer, unassigned) [Example 136] |
| 0.197 µM | 0.048 µM | Cc1nc2ccc(-c3cc(N)nc(N)c3)nc2n1[C@H]1C[C@H]1Cc1ccccc1 (single isomer, unassigned) [Example 137] |
| 0.1 µM | 0.052 µM | Cc1nc2ccc(-c3cc(N)nc(N)c3)nc2n1[C@H]1C[C@@H]1Cc1ccccc1 (single isomer, unassigned) [Example 138] |
| 0.024 µM | 0.007 µM | Cc1nc2ccc(-c3cc(N)nc(N)c3)nc2n1[C@@H]1C[C@@H]1Cc1ccccc1 (single isomer, unassigned) [Example 140] |
| 0.191 µM | 0.01 µM | COc1ccccc1O[C@@H](C)Cn1c(C)nc2ccc(-c3cc(N)nc(N)c3)nc21 (single isomer, unassigned) [Example 141] |
| 0.223 µM | 0.093 µM | Cc1nc2ccc(-c3cc(N)nc(N)c3)nc2n1C[C@H](C)Oc1cccc(Cl)n1 (single isomer, unassigned) [Example 176] |
| 0.237 µM | 0.023 µM | Cc1nc2ccc(-c3cc(N)nc(N)c3)nc2n1C[C@@H](C)Oc1ccc(F)cn1 (single isomer, unassigned) [Example 179] |
| 0.175 µM | 0.026 µM | Cc1nc2ccc(-c3cc(N)nc(N)c3)nc2n1C[C@H](C)Oc1ncccc1Br (single isomer, unassigned) [Example 182] |
| 0.181 µM | 0.065 µM | Cc1nc2ccc(-c3cc(N)nc(N)c3)nc2n1C[C@H](C)Oc1cccc(F)n1 (single isomer, unassigned) [Example 188] |
| 0.148 µM | 0.032 µM | Cc1nc2ccc(-c3cc(N)nc(N)c3)nc2n1C[C@H](C)Oc1ncccc1Cl (single isomer, unassigned) [Example 190] |
| 0.077 µM | 0.008 µM | Cc1nc2ccc(-c3cc(N)nc(N)c3)nc2n1CCc1ccc2c(c1)OCCO2 [Example 77, 4-{3-[2-(2,3-dihydro-1,4-benzodioxin-6-yl)ethyl]-2-methyl-3H-imidazo[4,5-b]pyridin-5-yl}pyridine-2,6-diamine] |
| 0.037 µM | 0.007 µM | Cc1nc2ccc(-c3cc(N)nc(N)c3)nc2n1CCc1ccccc1 [Example 83, 4-[2-methyl-3-(2-phenylethyl)-3H-imidazo[4,5-b]pyridin-5-yl]pyridine-2,6-diamine] |
| 0.113 µM | 0.019 µM | Cc1nc2ccc(-c3cc(N)nc(N)c3)nc2n1Cc1ccnc(F)c1 [Example 84, 4-{3-[(2-fluoropyridin-4-yl)methyl]-2-methyl-3H-imidazo[4,5-b]pyridin-5-yl}pyridine-2,6-diamine] |
| 0.143 µM | 0.016 µM | Cc1nc2ccc(-c3cc(N)nc(N)c3)nc2n1CCC1CCCO1 (stereo not drawn) [Example 85, 4-{2-methyl-3-[2-(tetrahydrofuran-2-yl)ethyl]-3H-imidazo[4,5-b]pyridin-5-yl}pyridine-2,6-diamine] |
| 0.151 µM | 0.019 µM | Cc1nc2ccc(-c3cc(N)nc(N)c3)nc2n1CC1CC1C (stereo not drawn) [Example 86, 4-{2-methyl-3-[(2-methylcyclopropyl)methyl]-3H-imidazo[4,5-b]pyridin-5-yl}pyridine-2,6-diamine] |
| 0.103 µM | 0.012 µM | CCC1(Cn2c(C)nc3ccc(-c4cc(N)nc(N)c4)nc32)CC1 [Example 88, 4-{3-[(1-ethylcyclopropyl)methyl]-2-methyl-3H-imidazo[4,5-b]pyridin-5-yl}pyridine-2,6-diamine] |
| 0.107 µM | 0.007 µM | COc1cccc2c1CCC(n1c(C)nc3ccc(-c4cc(N)nc(N)c4)nc31)C2 (stereo not drawn) [Example 93, 4-[3-(5-methoxy-1,2,3,4-tetrahydronaphthalen-2-yl)-2-methyl-3H-imidazo[4,5-b]pyridin-5-yl]pyridine-2,6-diamine] |
| 0.104 µM | 0.016 µM | Cc1nc2ccc(-c3cc(N)nc(N)c3)nc2n1CC1CC1(C)C (stereo not drawn) [Example 99, 4-{3-[(2,2-dimethylcyclopropyl)methyl]-2-methyl-3H-imidazo[4,5-b]pyridin-5-yl}pyridine-2,6-diamine] |
| 0.267 µM | 0.056 µM | Cc1nc2ccc(-c3cc(N)nc(N)c3)nc2n1CC(C)(C)Oc1ccccc1 [Example 116, 4-[2-methyl-3-(2-methyl-2-phenoxypropyl)-3H-imidazo[4,5-b]pyridin-5-yl]pyridine-2,6-diamine] |
| 0.089 µM | 0.015 µM | Cc1cccc(O[C@@H](C)Cn2c(C)nc3ccc(-c4cc(N)nc(N)c4)nc32)c1 [Example 127, 4-{2-methyl-3-[(2S)-2-(3-methylphenoxy)propyl]0.3H-imidazo[4,5-b]pyridin-5-yl}pyridine-2,6-diamine] |
| 0.037 µM | 0.013 µM | Cc1nc2ccc(-c3cc(N)nc(N)c3)nc2n1CCCOc1ccccc1 [Example 143, 4-[2-methyl-3-(3-phenoxypropyl)-3H-imidazo[4,5-b]pyridin-5-yl]pyridine-2,6-diamine] |
| 0.152 µM | 0.032 µM | Cc1nc2ccc(-c3cc(N)nc(N)c3)nc2n1CCOc1ccc(Cl)cn1 [Example 164, 4-(3-{2-[(5-chloropyridin-2-yl)oxy]ethyl}-2-methyl-3H-imidazo[4,5-b]pyridin-5-yl)pyridine-2,6-diamine] |
| 0.25 µM | 0.085 µM | Cc1nc2ccc(-c3cc(N)nc(N)c3)nc2n1CCOc1ncccc1Cl [Example 166, 4-(3-{2-[(3-chloropyridin-2-yl)oxy]ethyl}-2-methyl-3H-imidazo[4,5-b]pyridin-5-yl)pyridine-2,6-diamine] |
| 0.011 µM | 0.011 µM | Cc1nc2ccc(-c3cc(N)nc(N)c3)nc2n1CCOc1cccc(F)n1 [Example 167, 4-(3-{2-[(6-fluoropyridin-2-yl)oxy]ethyl}-2-methyl-3H-imidazo[4,5-b]pyridin-5-yl)pyridine-2,6-diamine] |
| 0.131 µM | 0.035 µM | Cc1nc2ccc(-c3cc(N)nc(N)c3)nc2n1CCOc1ccc(Br)cn1 [Example 170, 4-(3-{2-[(5-bromopyridin-2-yl)oxy]ethyl}-2-methyl-3H-imidazo[4,5-b]pyridin-5-yl)pyridine-2,6-diamine] |
| 0.109 µM | 0.018 µM | Cc1nc2ccc(-c3cc(N)nc(N)c3)nc2n1CCOc1ccc(F)cn1 [Example 171, 4-(3-{2-[(5-fluoropyridin-2-yl)oxy]ethyl}-2-methyl-3H-imidazo[4,5-b]pyridin-5-yl)pyridine-2,6-diamine] |
| 0.092 µM | 0.007 µM | Cc1nc2ccc(-c3cc(N)nc(N)c3)nc2n1CCOc1cccc(CF)n1 [Example 172, 4-[3-(2-{[6-(fluoromethyl)pyridin-2-yl]oxy}ethyl)-2-methyl-3H-imidazo[4,5-b]pyridin-5-yl]pyridine-2,6-diamine] |
